The values below come from patent US20260034111A1, “NOVEL HETEROCYCLES AS sPLA2-X INHIBITORS” (Cayman Chemical Company Incorporated, priority 2022, published 2026).

Common to all, as to assay type: biochemical
The target in test [1] is T1, recombinant human sPLA2-IIA enzyme (Homo sapiens, UniProt P14555).
T1 construct: made in house; host or cells: E. coli
T1 sequence (P14555 21-144): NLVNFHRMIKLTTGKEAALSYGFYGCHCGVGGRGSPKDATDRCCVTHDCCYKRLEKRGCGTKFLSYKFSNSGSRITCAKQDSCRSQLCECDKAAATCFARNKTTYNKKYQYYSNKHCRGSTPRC
The test can be described thus: sPLA2-IIA enzyme inhibition assay (thio-PC substrate, DTNB detection, absorbance 410 nm). The conditions noted are these: class symbols; read-out: sPLA2 Type IIa Inhibition (IC50; nM). The source says:
(§1) Screening Compounds for Inhibition of sPLA2-X, sPLA2-V, and sPLA2-IIA Enzyme Activity
(§2) These sPLA2 enzymes hydrolyze the sn-2 acyl chains of glycerophospholipids, resulting in the release of a free fatty acid and a lysophospholipid. In the case of the thio-PC substrate, this enzymatic hydrolysis results in a free sulfhydryl group remaining on the lysophospholipid. This free sulfhydryl reacts with DTNB to produce the chromogenic product 5-nitro-2-thiobenzoic acid (TNB) which can be quantitated by absorbance at 410 nm. The amount of TNB produced reflects the hydrolytic activity of the enzyme.
(§3) The recombinant human sPLA2 groups IIA, V, and X enzymes were expressed in E. coli and purified to >90% purity by standard biochemical methods.
(§4) Procedure of Enzyme Inhibition for sPLA2-X • 1. […] Dilute the test compounds in 100% DMSO by half-log steps in a 96-well dilution plate using columns 1-11 (one compound per row). Column 12 contains DMSO alone with no compound. • 3. Prepare a 3.5 mM thio-PC substrate solution by drying down 7.2 mg of stock thio-PC in ethanol under a gentle stream of N2 gas. When dry, add 4 mL assay buffer (25 mM Tris, pH7.4; 100 mM KCl; 10 mM CaCl2; 0.1% Triton X-100) and warm in a 37° C. water bath for 20 minutes with intermittent vortexing. • 4. Prepare an “enzyme containing” reaction mix with the following components: 20.4 mL assay buffer; 2 mL DTNB (20 mM in 800 mM Tris, pH8.0); and 11.8 mg recombinant human sPLA2-X enzyme (>95% pure) diluted to a total of 0.8 mL assay buffer. • 5. Prepare a “no enzyme” reaction mix with the following components: 477 μL assay buffer and 45 μL DTNB. • 6. Dispense 58 μL “no enzyme” reaction mix into each of 8 wells (columns 23 and 24, rows M-P). • 7. Dispense 58 μL “enzyme containing” reaction mix into all remaining wells on the plate. • 8. From the 96-well compound dilution plate, add 2 μL from each well for each compound to each of 4 wells with “enzyme containing” reaction mix. Columns 23 and 24 on the assay plate will contain only DMSO (vehicle control). […] After compound addition, mix the contents of each well to ensure that the DMSO is evenly distributed in the well. • 9. Cover the plate and incubate in the dark at room temperature for 15 minutes. • 10. Add 10 μL of thio-PC substrate to all wells. The final concentration of thio-PC in the reactions is 0.5 mM. • 11. Cover the plate and incubate in the dark at room temperature for 30 minutes. • 12. Measure the absorbance of all wells at 410 nm. • 13. Determine the mean absorbance of the “no enzyme” wells. Subtract this value from the absorbance values determined for all other wells (these are now background corrected data). • 14. […] Procedure of Enzyme Inhibition for sPLA2-V • 1. […] Dilute the test compounds in 100% DMSO by half-log steps in a 96-well dilution plate using columns 1-11. Column 12 contains DMSO alone with no compound. • 3. Prepare a 3.5 mM thio-PC substrate solution by drying down 7.2 mg of stock thio-PC in ethanol under a gentle stream of N2 gas. When dry, add 4 mL assay buffer (25 mM Tris, pH7.4; 100 mM KCl; 10 mM CaCl2; 0.1% Triton X-100) and warm in a 37° C. water bath for 20 minutes with intermittent vortexing. • 4. Prepare an “enzyme containing” reaction mix with the following components: 20.4 mL assay buffer; 2 mL DTNB (20 mM in 800 mM Tris, pH8.0); and 12 mg recombinant human sPLA2-V enzyme (>95% pure) diluted to a total of 0.8 mL assay buffer. • 5. Prepare a “no enzyme” reaction mix with the following components: 477 μL assay buffer and […]. • 6. Dispense 58 μL “no enzyme” reaction mix into each of 8 wells (columns 23 and 24, rows M-P). • 7. Dispense 58 μL “enzyme containing” reaction mix into all remaining wells on the plate. • 8. From the 96-well compound dilution plate, add 2 μL from each well for each compound to each of 4 wells with “enzyme containing” reaction mix. Columns 23 and 24 on the assay plate will contain only DMSO (vehicle control).

Test [2] addresses T2, sPLA2-X protein (Homo sapiens, UniProt O15496).
T2 sequence (O15496 43-165): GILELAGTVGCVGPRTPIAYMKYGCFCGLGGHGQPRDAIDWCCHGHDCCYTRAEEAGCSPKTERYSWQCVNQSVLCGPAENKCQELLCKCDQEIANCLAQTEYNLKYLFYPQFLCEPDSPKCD
The test can be described thus: sPLA2-X enzyme inhibition assay (thio-PC substrate, DTNB detection, absorbance 410 nm). Also noted: made in house; host or cells: E. coli. The conditions noted are these: class symbols; read-out: sPLA2 Type X Inhibition (IC50; nM).
Text: as §1, §2, §3, §4

Test [3] deals with T3, recombinant human sPLA2-V enzyme (Homo sapiens, UniProt P39877).
T3 construct: made in house; host or cells: E. coli
T3 sequence (P39877 21-138): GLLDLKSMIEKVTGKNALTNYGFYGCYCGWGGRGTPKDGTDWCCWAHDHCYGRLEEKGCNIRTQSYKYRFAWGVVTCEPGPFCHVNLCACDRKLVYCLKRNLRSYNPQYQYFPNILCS
Kind of test: sPLA2-V enzyme inhibition assay (thio-PC substrate, DTNB detection, absorbance 410 nm). Conditions: class symbols; read-out: sPLA2 Type V Inhibition (IC50; nM).
Text: as §1, §2, §3, §4

Where a name gives a salt, the structure may show the parent alone. Bounds are passed on as bounds.

For `NC(=O)c1cc2ccc(OC(F)(F)F)cc2n1-c1cccc(C2(CC(=O)O)CCC2)c1` [Compound 30, 2-(1-(3-(2-carbamoyl-6-(trifluoromethoxy)-1H-indol-1-yl)phenyl)cyclobutyl)acetic acid], the half-maximal inhibitory concentration (IC50) (as a rule, the concentration at which inhibition is half-maximal) in test [1] is more than 1000 nM; in test [2] it was less than 20 nM; in test [3], 1500 to 5000 nM.

In the case of `CNC(=O)c1cc2ccc(OC(F)(F)F)cc2n1-c1cccc(CCC(=O)O)c1` [Compound 14, 3-(3-(2-(methylcarbamoyl)-6-(trifluoromethoxy)-1H-indol-1-yl)phenyl)propanoic acid], the IC50 is more than 1000 nM in test [1], more than 200 nM in test [2] and more than 5000 nM in test [3].

As to `NC(=O)c1cc2ccc(OC(F)(F)F)cc2n1-c1ccc2occ(C(=O)O)c2c1` [Compound 20, 5-(2-carbamoyl-6-(trifluoromethoxy)-1H-indol-1-yl)benzofuran-3-carboxylic acid], the IC50 was more than 1000 nM in test [1], more than 200 nM in test [2] and more than 5000 nM in test [3].

For `NC(=O)c1cc2ccc(OC(F)(F)F)cc2n1-c1cccc([C@H]2C[C@@H]2C(=O)O)n1` (relative stereo) [Compound 28a, trans-(−)-2-(6-(2-carbamoyl-6-(trifluoromethoxy)-1H-indol-1-yl)pyridin-2-yl)cyclopropane-1-carboxylic acid], the results for the IC50 in test [1], in test [2] and in test [3] were more than 1000 nM, less than 20 nM and more than 5000 nM, respectively.

Take `CS(=O)(=O)NCc1cccc(-n2c(C(N)=O)cc3ccc(OC(F)(F)F)cc32)n1` [Compound 33]: the 50% inhibitory concentration (IC50) in test [1] was more than 1000 nM; in test [2], more than 200 nM; in test [3], more than 5000 nM.

Consider `O=C(O)c1cc2ccc(OC(F)(F)F)cc2n1-c1cccc(C2(C(=O)O)CC2)n1` [Compound 39, 1-(6-(1-carboxycyclopropyl)pyridin-2-yl)-6-(trifluoromethoxy)-1H-indole-2-carboxylic acid], for which the concentration for half-maximal inhibition (IC50) in test [1] was more than 1000 nM; in test [2], more than 200 nM; in test [3] it was more than 5000 nM.

Regarding `CC(C)(CC(=O)O)c1cccc(-n2c(C(N)=O)cc3ccc(OC(F)(F)F)cc32)n1` [Compound 62, 3-(6-(2-carbamoyl-6-(trifluoromethoxy)-1H-indol-1-yl)pyridin-2-yl)-3-methylbutanoic acid], the figures for the concentration for half-maximal inhibition (IC50) in test [1], in test [2] and in test [3] were more than 1000 nM, 20 to 50 nM and 1500 to 5000 nM, respectively.

Consider `C[C@@]1(c2cccc(-n3c(C(N)=O)cc4ccc(OC(F)(F)F)cc43)c2)C[C@H]1C(=O)O` (relative stereo) [Compound 38b, trans-2-(3-(2-carbamoyl-6-(trifluoromethoxy)-1H-indol-1-yl)phenyl)-2-methylcyclopropane-1-carboxylic acid], for which the IC50 was more than 1000 nM in test [1], 20 to 50 nM in test [2] and more than 5000 nM in test [3].

As to `CC(C)(C)OC(=O)NCc1cccc(-n2c(C(N)=O)cc3ccc(OC(F)(F)F)cc32)n1` [Compound 26, tert-butyl ((6-(2-carbamoyl-6-(trifluoromethoxy)-1H-indol-1-yl)pyridin-2-yl)methyl)carbamate], the half-maximal inhibitory concentration (IC50) in test [1] is more than 1000 nM; in test [2] it was more than 200 nM; in test [3], more than 5000 nM.

For the compound `NC(=O)c1cc2ccc(OC(F)(F)F)cc2n1-c1cccc(C[C@@H](N)C(=O)O)c1` [Compound 23, (R)-2-amino-3-(3-(2-carbamoyl-6-(trifluoromethoxy)-1H-indol-1-yl)phenyl)propanoic acid TFA salt], the values for the IC50 in test [1], in test [2] and in test [3] were more than 1000 nM, more than 200 nM and more than 5000 nM, respectively.

As for `NC(=O)c1sc2ccc(OC(F)(F)F)cc2c1-c1cccc(C2CC2C(=O)O)n1` (stereo not drawn) [Compound 56, trans-2-(6-(2-carbamoyl-5-(trifluoromethoxy)benzo[b]thiophen-3-yl)pyridin-2-yl)cyclopropane-1-carboxylic acid], the 50% inhibitory concentration (IC50) was more than 1000 nM in test [1], less than 20 nM in test [2] and more than 5000 nM in test [3].

On to `NC(=O)c1cc2ccc(OC(F)(F)F)cc2n1-c1ccc2occ(CC(=O)O)c2c1` [Compound 12, 2-(5-(2-carbamoyl-6-(trifluoromethoxy)-1H-indol-1-yl)benzofuran-3-yl)acetic acid], for which the IC50 in test [1] is more than 1000 nM; in test [2], 50 to 200 nM; in test [3], more than 5000 nM.

Take `NC(=O)c1cc2ccc(OC(F)(F)F)cc2n1-c1cccc(CCC(=O)O)n1` [Compound 18, 3-(6-(2-carbamoyl-6-(trifluoromethoxy)-1H-indol-1-yl)pyridin-2-yl)propanoic acid]: the concentration for half-maximal inhibition (IC50) in test [1] is more than 1000 nM; in test [2] it was less than 20 nM; in test [3] it was 1500 to 5000 nM.

Take `NC(=O)c1cc2ccc(OC(F)(F)F)cc2n1-c1cccc(SC2(C(=O)O)CCC2)c1` [Compound 4, 1-((3-(2-carbamoyl-6-(trifluoromethoxy)-1H-indol-1-yl)phenyl)thio)cyclobutane-1-carboxylic acid]: the IC50 is 200 to 500 nM in test [1], less than 20 nM in test [2] and less than 500 nM in test [3].

Turning to `NC(=O)c1cc2ccc(OC(F)(F)F)cc2n1-c1cccc(C2CC2C(=O)O)n1` (racemic) [Compound 28c, cis-(rac)-2-(6-(2-carbamoyl-6-(trifluoromethoxy)-1H-indol-1-yl)pyridin-2-yl)cyclopropane-1-carboxylic acid], the IC50 in test [1] is 200 to 500 nM; in test [2], 20 to 50 nM; in test [3], 1500 to 5000 nM.

As to `CC(C)(C)OC(=O)N1CC(CC(=O)O)c2cc(-n3c(C(N)=O)cc4ccc(OC(F)(F)F)cc43)ccc21` (stereo not drawn) [Compound 11, 2-(1-(tert-butoxycarbonyl)-5-(2-carbamoyl-6-(trifluoromethoxy)-1H-indol-1-yl)indolin-3-yl)acetic acid], the IC50 is more than 1000 nM in test [1], 50 to 200 nM in test [2] and more than 5000 nM in test [3].

Regarding `N[C@@H](CC(=O)O)c1cccc(-n2c(C(=O)O)cc3ccc(OC(F)(F)F)cc32)c1` [Compound 41, (S)-1-(3-(1-amino-2-carboxyethyl)phenyl)-6-(trifluoromethoxy)-1H-indole-2-carboxylic acid], the 50% inhibitory concentration (IC50) is more than 1000 nM in test [1], more than 200 nM in test [2] and more than 5000 nM in test [3].

Consider `NC(=O)c1cc2ccc(OC(F)(F)F)cc2n1-c1cccc(C2CC2C(=O)O)c1` (racemic) [Compound 15, trans-2-(3-(2-carbamoyl-6-(trifluoromethoxy)-1H-indol-1-yl)phenyl)cyclopropane-1-carboxylic acid], for which the concentration for half-maximal inhibition (IC50) in test [1] was more than 1000 nM; in test [2], 20 to 50 nM; in test [3], more than 5000 nM.
